Reference: ChEMBL document CHEMBL3797068, “eCF309: a potent, selective and cell-permeable mTOR inhibitor” (Medchemcomm, 2016)
Activity calls are given as the source filed them. The rule behind the calls is not given here.

How the values were obtained:
[1] = biological target: Tyrosine-protein kinase Blk (Homo sapiens, UniProt P51451); assay: Inhibition of human BLK using (poly [Glu, Tyr] 4:1) as substrate assessed as incorporation of 33P in substrate by [gamma33P] ATP-based kinase assay
[2] = biological target: Platelet-derived growth factor receptor alpha (Homo sapiens, UniProt P16234); assay: Inhibition of human PDGFRalpha using (poly [Glu, Tyr] 4:1) as substrate assessed as incorporation of 33P in substrate by [gamma33P] ATP-based kinase assay
[3] = biological target: Mast/stem cell growth factor receptor Kit (Homo sapiens, UniProt P10721); assay: Inhibition of human KIT using (poly [Glu, Tyr] 4:1) as substrate assessed as incorporation of 33P in substrate by [gamma33P] ATP-based kinase assay
MCF7 [4] = assay: Cytotoxicity against human MCF7 cells after 5 days by Presto blue reagent-based fluorescence analysis; assay type: functional, cell-based; settings: for EC50: MCF7, 120 h
MCF7 [5] = assay: Cytotoxicity against human MCF7 cells assessed as cell viability at 1000 nM after 5 days by Presto blue reagent-based spectrofluorometric analysis; assay type: functional; settings: MCF7, 120 h, read-out: Activity
[6] = biological target: Tyrosine-protein kinase ABL1 (Homo sapiens, UniProt P00519); assay: Inhibition of human ABL using (poly [Glu, Tyr] 4:1) as substrate assessed as incorporation of 33P in substrate by [gamma33P] ATP-based kinase assay
[7] = biological target: Tyrosine-protein kinase Fyn (Homo sapiens, UniProt P06241); assay: Inhibition of human FYN using (poly [Glu, Tyr] 4:1) as substrate assessed as incorporation of 33P in substrate by [gamma33P] ATP-based kinase assay
[8] = biological target: T1, Serine/threonine-protein kinase mTOR (Homo sapiens, UniProt P42345); assay: Inhibition of human mTOR using (poly [Glu, Tyr] 4:1) as substrate assessed as incorporation of 33P in substrate by [gamma33P] ATP-based kinase assay
[9] = biological target: Proto-oncogene tyrosine-protein kinase receptor Ret (Homo sapiens, UniProt P07949); assay: Inhibition of human RET using (poly [Glu, Tyr] 4:1) as substrate assessed as incorporation of 33P in substrate by [gamma33P] ATP-based kinase assay
[10] = biological target: Proto-oncogene tyrosine-protein kinase Src (Homo sapiens, UniProt P12931); assay: Inhibition of human SRC using (poly [Glu, Tyr] 4:1) as substrate assessed as incorporation of 33P in substrate by [gamma33P] ATP-based kinase assay
[11] = biological target: Tyrosine-protein kinase Yes (Homo sapiens, UniProt P07947); assay: Inhibition of human YES using (poly [Glu, Tyr] 4:1) as substrate assessed as incorporation of 33P in substrate by [gamma33P] ATP-based kinase assay
[12] = biological target: T2, Phosphatidylinositol 4,5-bisphosphate 3-kinase catalytic subunit alpha isoform (Homo sapiens, UniProt P42336); assay: Inhibition of PI3Kalpha (unknown origin) using (poly [Glu, Tyr] 4:1) as substrate assessed as incorporation of 33P in substrate by [gamma33P] ATP-based kinase assay
[13] = biological target: T3, Phosphatidylinositol 4,5-bisphosphate 3-kinase catalytic subunit beta isoform (Homo sapiens, UniProt P42338); assay: Inhibition of PI3Kbeta (unknown origin) using (poly [Glu, Tyr] 4:1) as substrate assessed as incorporation of 33P in substrate by [gamma33P] ATP-based kinase assay
[14] = biological target: T4, Phosphatidylinositol 4,5-bisphosphate 3-kinase catalytic subunit gamma isoform (Homo sapiens, UniProt P48736); assay: Inhibition of PI3Kgamma (unknown origin) using (poly [Glu, Tyr] 4:1) as substrate assessed as incorporation of 33P in substrate by [gamma33P] ATP-based kinase assay
[15] = biological target: T5, Phosphatidylinositol 4,5-bisphosphate 3-kinase catalytic subunit delta isoform (Homo sapiens, UniProt O00329); assay: Inhibition of PI3Kdelta (unknown origin) using (poly [Glu, Tyr] 4:1) as substrate assessed as incorporation of 33P in substrate by [gamma33P] ATP-based kinase assay
T5 sequence (O00329 whole entry): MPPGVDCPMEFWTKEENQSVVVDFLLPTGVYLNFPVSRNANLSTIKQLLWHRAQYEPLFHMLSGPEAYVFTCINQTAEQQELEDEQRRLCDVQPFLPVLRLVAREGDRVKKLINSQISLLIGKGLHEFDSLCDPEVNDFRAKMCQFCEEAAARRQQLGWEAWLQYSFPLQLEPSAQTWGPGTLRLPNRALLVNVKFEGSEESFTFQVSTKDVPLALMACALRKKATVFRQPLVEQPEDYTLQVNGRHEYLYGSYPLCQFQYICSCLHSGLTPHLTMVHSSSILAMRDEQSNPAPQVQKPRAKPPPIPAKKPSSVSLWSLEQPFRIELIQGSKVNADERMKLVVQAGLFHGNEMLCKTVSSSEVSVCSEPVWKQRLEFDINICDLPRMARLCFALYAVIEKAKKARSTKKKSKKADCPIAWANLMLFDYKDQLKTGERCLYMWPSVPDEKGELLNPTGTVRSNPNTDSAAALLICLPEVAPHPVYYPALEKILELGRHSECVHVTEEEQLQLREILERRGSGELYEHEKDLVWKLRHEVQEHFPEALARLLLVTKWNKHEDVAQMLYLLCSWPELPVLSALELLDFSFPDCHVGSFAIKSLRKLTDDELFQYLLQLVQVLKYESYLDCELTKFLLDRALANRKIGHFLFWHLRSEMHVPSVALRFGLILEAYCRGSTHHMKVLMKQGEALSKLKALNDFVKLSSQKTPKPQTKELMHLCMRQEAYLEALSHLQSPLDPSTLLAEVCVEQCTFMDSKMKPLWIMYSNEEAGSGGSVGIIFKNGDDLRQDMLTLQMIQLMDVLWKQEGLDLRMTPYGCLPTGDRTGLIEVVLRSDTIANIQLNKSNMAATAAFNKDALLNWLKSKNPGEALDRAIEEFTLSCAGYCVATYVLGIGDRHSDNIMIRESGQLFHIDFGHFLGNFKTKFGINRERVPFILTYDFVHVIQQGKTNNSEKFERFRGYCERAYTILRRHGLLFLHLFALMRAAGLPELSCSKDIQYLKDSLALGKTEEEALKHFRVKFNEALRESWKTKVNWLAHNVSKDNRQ

[16] = biological target: Epithelial discoidin domain-containing receptor 1 (Homo sapiens, UniProt Q08345); assay: Inhibition of human DDR1 using (poly [Glu, Tyr] 4:1) as substrate assessed as incorporation of 33P in substrate by [gamma33P] ATP-based kinase assay
[17] = biological target: T1, Serine/threonine-protein kinase mTOR; assay: Inhibition of recombinant human mTOR by LanthaScreen Kinase assay
[18] = biological target: T2, Phosphatidylinositol 4,5-bisphosphate 3-kinase catalytic subunit alpha isoform; assay: Inhibition of PI3Kalpha (unknown origin) using PIP2 as substrate by HTRF assay
[19] = biological target: T3, Phosphatidylinositol 4,5-bisphosphate 3-kinase catalytic subunit beta isoform; assay: Inhibition of PI3Kbeta (unknown origin) using PIP2 as substrate by HTRF assay
[20] = biological target: T4, Phosphatidylinositol 4,5-bisphosphate 3-kinase catalytic subunit gamma isoform; assay: Inhibition of PI3Kgamma (unknown origin) using PIP2 as substrate by HTRF assay
[21] = biological target: T5, Phosphatidylinositol 4,5-bisphosphate 3-kinase catalytic subunit delta isoform; assay: Inhibition of PI3Kdelta (unknown origin) using PIP2 as substrate by HTRF assay
[22] = biological target: DNA-dependent protein kinase catalytic subunit (Homo sapiens, UniProt P78527); assay: Inhibition of human DNA-PK using (poly [Glu, Tyr] 4:1) as substrate assessed as incorporation of 33P in substrate by [gamma33P] ATP-based kinase assay
MDA-MB-231 [23] = assay: Cytotoxicity against human MDA-MB-231 cells after 5 days by Presto blue reagent-based spectrofluorometric analysis; assay type: functional, cell-based; settings: MDA-MB-231, 120 h
[24] = Cytotoxicity against human PC3 cells after 5 days by Presto blue reagent-based spectrofluorometric analysis; assay type: functional, cell-based; settings: PC-3, 120 h
MCF7 [25] = assay: Cell cycle arrest in human MCF7 cells assessed as increase in G0/G1 population after 24 hrs by Hoechst 33342 staining-based fluorescence analysis; assay type: functional
MDA-MB-231 [26] = assay: Cell cycle arrest in human MDA-MB-231 cells assessed as increase in G0/G1 population after 24 hrs by Hoechst 33342 staining-based fluorescence analysis; assay type: functional
[27] = Cell cycle arrest in human PC3 cells assessed as increase in G0/G1 population after 24 hrs by Hoechst 33342 staining-based fluorescence analysis; assay type: functional; settings: PC-3

T3 sequence (P42338 whole entry, canonical isoform): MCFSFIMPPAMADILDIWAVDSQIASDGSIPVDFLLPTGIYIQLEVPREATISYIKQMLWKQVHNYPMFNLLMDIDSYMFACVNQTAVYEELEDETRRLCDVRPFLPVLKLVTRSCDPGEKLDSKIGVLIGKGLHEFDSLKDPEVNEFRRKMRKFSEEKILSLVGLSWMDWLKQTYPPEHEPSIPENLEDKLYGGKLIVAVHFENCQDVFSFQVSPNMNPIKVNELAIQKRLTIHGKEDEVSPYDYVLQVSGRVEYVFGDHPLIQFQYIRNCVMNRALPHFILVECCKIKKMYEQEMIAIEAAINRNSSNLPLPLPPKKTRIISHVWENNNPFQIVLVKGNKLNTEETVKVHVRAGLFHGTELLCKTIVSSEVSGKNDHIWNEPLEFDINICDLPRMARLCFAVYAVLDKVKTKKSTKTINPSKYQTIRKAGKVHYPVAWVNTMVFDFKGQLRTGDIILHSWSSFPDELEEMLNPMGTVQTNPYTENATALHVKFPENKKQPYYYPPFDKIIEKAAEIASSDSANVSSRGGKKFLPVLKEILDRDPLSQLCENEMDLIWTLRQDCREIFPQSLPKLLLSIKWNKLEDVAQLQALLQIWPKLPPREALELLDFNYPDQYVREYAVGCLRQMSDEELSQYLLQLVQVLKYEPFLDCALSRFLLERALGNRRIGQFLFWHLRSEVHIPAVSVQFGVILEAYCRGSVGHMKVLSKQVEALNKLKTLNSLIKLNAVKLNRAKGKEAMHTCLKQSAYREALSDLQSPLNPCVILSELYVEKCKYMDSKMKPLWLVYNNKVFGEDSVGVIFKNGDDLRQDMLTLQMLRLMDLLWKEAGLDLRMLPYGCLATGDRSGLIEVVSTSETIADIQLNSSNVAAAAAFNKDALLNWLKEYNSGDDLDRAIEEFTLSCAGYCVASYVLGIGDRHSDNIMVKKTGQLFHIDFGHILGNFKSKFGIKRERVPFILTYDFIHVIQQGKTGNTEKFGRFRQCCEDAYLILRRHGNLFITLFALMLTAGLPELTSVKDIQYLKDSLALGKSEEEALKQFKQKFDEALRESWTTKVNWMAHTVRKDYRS
T2 sequence (P42336 whole entry, canonical isoform): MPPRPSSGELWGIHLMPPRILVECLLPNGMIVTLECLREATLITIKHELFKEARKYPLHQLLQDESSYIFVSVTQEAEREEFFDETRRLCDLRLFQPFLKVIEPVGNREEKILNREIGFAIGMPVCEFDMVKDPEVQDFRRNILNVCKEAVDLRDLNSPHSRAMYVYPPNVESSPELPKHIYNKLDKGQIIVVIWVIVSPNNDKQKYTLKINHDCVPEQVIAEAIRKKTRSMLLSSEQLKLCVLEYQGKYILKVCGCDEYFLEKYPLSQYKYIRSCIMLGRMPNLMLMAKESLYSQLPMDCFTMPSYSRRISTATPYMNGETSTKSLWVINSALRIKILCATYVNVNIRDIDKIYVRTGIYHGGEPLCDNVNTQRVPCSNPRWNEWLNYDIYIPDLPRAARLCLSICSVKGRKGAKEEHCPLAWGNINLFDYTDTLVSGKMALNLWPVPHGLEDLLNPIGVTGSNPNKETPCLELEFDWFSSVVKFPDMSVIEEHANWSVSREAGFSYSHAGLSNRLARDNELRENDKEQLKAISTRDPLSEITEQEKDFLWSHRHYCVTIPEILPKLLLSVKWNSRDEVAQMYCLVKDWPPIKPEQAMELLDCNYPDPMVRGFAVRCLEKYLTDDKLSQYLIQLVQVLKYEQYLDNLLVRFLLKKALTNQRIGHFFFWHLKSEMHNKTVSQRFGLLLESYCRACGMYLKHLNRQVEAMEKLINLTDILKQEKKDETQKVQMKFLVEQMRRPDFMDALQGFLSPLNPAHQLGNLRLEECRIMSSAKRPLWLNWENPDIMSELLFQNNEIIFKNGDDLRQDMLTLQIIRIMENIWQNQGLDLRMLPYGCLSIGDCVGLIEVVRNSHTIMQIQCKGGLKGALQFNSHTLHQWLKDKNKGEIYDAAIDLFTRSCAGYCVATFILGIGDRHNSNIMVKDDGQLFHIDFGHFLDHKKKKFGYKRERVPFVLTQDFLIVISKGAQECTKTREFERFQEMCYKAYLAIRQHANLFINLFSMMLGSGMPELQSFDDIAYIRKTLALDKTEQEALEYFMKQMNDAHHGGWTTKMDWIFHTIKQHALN
Sequence of Platelet-derived growth factor receptor alpha (P16234 whole entry): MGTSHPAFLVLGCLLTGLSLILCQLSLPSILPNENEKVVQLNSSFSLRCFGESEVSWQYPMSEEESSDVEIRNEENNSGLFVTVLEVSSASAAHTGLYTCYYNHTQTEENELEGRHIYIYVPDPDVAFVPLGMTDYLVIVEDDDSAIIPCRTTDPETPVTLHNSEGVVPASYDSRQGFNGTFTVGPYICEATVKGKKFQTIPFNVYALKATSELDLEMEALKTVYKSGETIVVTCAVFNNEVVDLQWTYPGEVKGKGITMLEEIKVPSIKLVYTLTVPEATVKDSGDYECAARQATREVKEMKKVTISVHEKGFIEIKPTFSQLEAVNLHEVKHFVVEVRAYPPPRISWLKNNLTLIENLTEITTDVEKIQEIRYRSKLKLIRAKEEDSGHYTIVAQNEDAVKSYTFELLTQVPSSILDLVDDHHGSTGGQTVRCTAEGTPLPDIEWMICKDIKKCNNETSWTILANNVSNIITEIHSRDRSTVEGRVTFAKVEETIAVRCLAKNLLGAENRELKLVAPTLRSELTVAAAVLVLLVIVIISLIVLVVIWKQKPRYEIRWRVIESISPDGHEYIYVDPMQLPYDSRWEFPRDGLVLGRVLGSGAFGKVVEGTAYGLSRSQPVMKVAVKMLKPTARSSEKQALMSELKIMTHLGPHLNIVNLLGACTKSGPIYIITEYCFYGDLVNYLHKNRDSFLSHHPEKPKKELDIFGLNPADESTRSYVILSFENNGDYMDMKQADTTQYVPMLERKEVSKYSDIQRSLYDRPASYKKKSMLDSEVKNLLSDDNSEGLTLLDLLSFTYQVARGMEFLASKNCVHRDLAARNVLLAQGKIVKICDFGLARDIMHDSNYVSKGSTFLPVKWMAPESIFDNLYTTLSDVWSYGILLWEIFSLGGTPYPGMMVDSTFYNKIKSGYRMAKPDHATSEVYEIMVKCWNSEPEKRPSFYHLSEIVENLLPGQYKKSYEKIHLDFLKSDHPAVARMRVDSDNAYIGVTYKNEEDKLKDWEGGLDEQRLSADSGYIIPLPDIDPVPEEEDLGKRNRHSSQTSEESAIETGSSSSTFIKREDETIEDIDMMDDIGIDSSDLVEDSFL
T4 sequence (P48736 whole entry, canonical isoform): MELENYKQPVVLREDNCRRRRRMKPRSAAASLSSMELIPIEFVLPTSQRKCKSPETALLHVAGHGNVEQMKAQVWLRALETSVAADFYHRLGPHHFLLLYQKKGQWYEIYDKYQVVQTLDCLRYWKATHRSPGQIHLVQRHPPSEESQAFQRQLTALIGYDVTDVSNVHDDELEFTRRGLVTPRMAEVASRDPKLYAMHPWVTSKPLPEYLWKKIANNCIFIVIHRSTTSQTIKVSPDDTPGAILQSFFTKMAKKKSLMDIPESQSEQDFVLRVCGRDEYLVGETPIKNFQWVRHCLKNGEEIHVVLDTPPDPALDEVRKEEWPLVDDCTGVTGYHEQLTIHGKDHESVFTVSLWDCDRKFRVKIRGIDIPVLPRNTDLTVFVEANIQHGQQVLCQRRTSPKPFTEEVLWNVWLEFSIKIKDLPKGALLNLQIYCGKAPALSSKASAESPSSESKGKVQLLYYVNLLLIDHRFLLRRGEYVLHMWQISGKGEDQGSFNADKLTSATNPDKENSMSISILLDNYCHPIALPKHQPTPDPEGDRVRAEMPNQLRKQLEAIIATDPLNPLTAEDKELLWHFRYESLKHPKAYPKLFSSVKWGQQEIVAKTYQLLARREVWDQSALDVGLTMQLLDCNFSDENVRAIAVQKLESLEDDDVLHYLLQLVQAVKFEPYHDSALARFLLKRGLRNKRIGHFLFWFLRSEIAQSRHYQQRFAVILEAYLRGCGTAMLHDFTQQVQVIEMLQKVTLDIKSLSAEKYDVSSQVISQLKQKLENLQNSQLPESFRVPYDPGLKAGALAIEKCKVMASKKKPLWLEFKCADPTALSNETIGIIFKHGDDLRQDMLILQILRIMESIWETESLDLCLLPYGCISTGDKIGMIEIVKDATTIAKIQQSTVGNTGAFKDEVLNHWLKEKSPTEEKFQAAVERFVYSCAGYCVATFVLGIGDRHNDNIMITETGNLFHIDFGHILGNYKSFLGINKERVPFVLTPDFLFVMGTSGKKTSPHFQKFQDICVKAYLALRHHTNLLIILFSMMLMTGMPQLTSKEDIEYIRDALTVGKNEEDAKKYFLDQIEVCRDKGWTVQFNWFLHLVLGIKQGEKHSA
Sequence of Tyrosine-protein kinase Blk (P51451 whole entry): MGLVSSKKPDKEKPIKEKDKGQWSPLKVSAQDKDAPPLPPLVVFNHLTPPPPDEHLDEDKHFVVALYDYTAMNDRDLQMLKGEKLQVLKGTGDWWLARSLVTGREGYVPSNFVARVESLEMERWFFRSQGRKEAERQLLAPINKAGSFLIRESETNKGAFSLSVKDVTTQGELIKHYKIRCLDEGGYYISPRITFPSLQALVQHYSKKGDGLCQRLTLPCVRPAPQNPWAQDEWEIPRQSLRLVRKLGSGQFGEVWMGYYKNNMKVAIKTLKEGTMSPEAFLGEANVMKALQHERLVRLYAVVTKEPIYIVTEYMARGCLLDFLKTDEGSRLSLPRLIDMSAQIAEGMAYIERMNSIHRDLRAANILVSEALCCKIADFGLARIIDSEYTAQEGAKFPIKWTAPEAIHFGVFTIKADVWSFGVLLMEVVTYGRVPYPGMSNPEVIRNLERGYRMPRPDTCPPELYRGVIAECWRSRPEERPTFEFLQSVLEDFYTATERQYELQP

SMILES	IC50 [1] [nM]	IC50 [2] [nM]	IC50 [3] [nM]	IC50 [6] [nM]	IC50 [7] [nM]	IC50 [8] [nM]	IC50 [9] [nM]	IC50 [10] [nM]	IC50 [11] [nM]	IC50 [12] [nM]	IC50 [13] [nM]	IC50 [14] [nM]	IC50 [15] [nM]	Activity (MCF7 [4])	EC50 (MCF7 [4]) [nM]	also measured
CCOC(Cn1nc(-c2cnc3[nH]ccc3c2)c2c(N)ncnc21)OCC	> 100000	> 100000	> 100000											Active		
CO[C@H]1C[C@@H]2CC[C@@H](C)[C@@](O)(O2)C(=O)C(=O)N2CCCC[C@H]2C(=O)O[C@H]([C@H](C)C[C@@H]2CC[C@@H](O)[C@H](OC)C2)CC(=O)[C@H](C)/C=C(\C)[C@@H](O)[C@@H](OC)C(=O)[C@H](C)C[C@H](C)/C=C/C=C/C=C/1C [SIROLIMUS]															< 1	viability at 1 µM (MCF7 [5]): 30%
Nc1ncnc2c1c(-c1cnc3[nH]ccc3c1)nn2CC1OCCO1														Active		
Nc1nc2cc(-c3nn(CC4CCCO4)c4ncnc(N)c34)ccc2o1 (stereo not drawn)															8	IC50 [16]: 137 nM; IC50 [17]: 5 nM; IC50 [18]: 44 nM; IC50 [19]: 1120 nM; IC50 [20]: 77 nM; IC50 [21]: 149 nM; IC50 [22]: 48 nM; EC50 (MDA-MB-231 [23]): 113 nM; EC50 [24]: 51 nM; Activity (MCF7 [25]): Active; Activity (MDA-MB-231 [26]): Active; Activity [27]: Active

Further lines, with some results ahead:

IC50 [1] [nM]	IC50 [2] [nM]	IC50 [3] [nM]	IC50 [6] [nM]	IC50 [7] [nM]	IC50 [8] [nM]	IC50 [9] [nM]	IC50 [10] [nM]	IC50 [11] [nM]	IC50 [12] [nM]	IC50 [13] [nM]	IC50 [14] [nM]	IC50 [15] [nM]	SMILES	Activity (MCF7 [4])	EC50 (MCF7 [4]) [nM]	also measured
> 100000	> 100000	> 100000	9920	> 100000	25	> 100000	> 100000	> 100000	300	5600	99	505	COC(Cn1nc(-c2ccc3oc(N)nc3c2)c2c(N)ncnc21)OC		6.7	
> 100000	> 100000	> 100000	8630	> 100000	59	> 100000	> 100000	> 100000	115	3850	302	271	Nc1nc2cc(-c3nn(CC4OCCO4)c4ncnc(N)c34)ccc2o1		7.6	
